Data reported in patent US9302999B2, “Substituted triazoles as herbicides” (E. I. DU PONT DE NEMOURS AND COMPANY, priority 2012, dated 2016).

What was measured:
Type in all cases: in vivo
[1] = test system: barnyardgrass (Echinochloa crus-galli); experiment: Test A pre-/postemergence: barnyardgrass; conditions: for Barnyardgrass plant response rating: Postemergence; for Plant response rating, Barnyardgrass: Preemergence
Procedure, shortened: (§1)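 Compounds, formulated with surfactant in non-phytotoxic solvent, were applied as a directed soil spray preemergence and as postemergence sprays to 2–10 cm, one- to two-leaf seedlings grown in loam soil blended with sand; visual injury, 0–100, assessed ~10 days post-treatment against untreated controls.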

[2] = test system: foxtail, giant (giant foxtail, Setaria faberii); experiment: Test A pre-/postemergence: foxtail, giant; conditions: for Foxtail, Giant plant response rating: Postemergence; for Plant response rating, Foxtail, Giant: Preemergence
Procedure, shortened: as §1

[3] = test system: rice (Oryza sativa); experiment: Test C flooded paddy test: rice; conditions: scale 0 to 100 (0 no effect, 100 complete control)
Procedure, shortened: (§2)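 Visual ratings from 0 (no effect) to 100 (complete control), made against untreated controls 13 to 15 days after treatment, express plant response. Compounds went directly into paddy water over 2-leaf stage plants in pots flooded to 3 cm.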

[4] = test system: corn (Zea mays); experiment: Test A pre-/postemergence: corn; conditions: for Corn plant response rating: Postemergence; for Plant response rating, Corn: Preemergence
Procedure, shortened: as §1

[5] = test system: barnyardgrass (Echinochloa crus-galli); experiment: Test C flooded paddy test: barnyardgrass; conditions: scale 0 to 100 (0 no effect, 100 complete control)
Procedure, shortened: as §2

[6] = test system: ducksalad (Heteranthera limosa); experiment: Test C flooded paddy test: ducksalad; conditions: scale 0 to 100 (0 no effect, 100 complete control)
Procedure, shortened: as §2

[7] = test system: wheat (Triticum aestivum); experiment: Test A pre-/postemergence: wheat; conditions: for Wheat plant response rating: Postemergence; for Plant response rating, Wheat: Preemergence
Procedure, shortened: as §1

[8] = test system: crabgrass, large (large crabgrass, Digitaria sanguinalis); experiment: Test A pre-/postemergence: crabgrass, large; conditions: for Crabgrass, Large plant response rating: Postemergence; for Plant response rating, Crabgrass, Large: Preemergence
Procedure, shortened: as §1

[9] = test system: pigweed (Amaranthus retroflexus); experiment: Test A pre-/postemergence: pigweed; conditions: for Pigweed plant response rating: Postemergence; for Plant response rating, Pigweed: Preemergence
Procedure, shortened: as §1

[10] = test system: morningglory (Ipomoea spp.); experiment: Test A pre-/postemergence: morningglory; conditions: for Morningglory plant response rating: Postemergence; for Plant response rating, Morningglory: Preemergence
Procedure, shortened: as §1

[11] = test system: velvetleaf (Abutilon theophrasti); experiment: Test A pre-/postemergence: velvetleaf; conditions: for Velvetleaf plant response rating: Postemergence; for Plant response rating, Velvetleaf: Preemergence
Procedure, shortened: as §1

[12] = test system: sedge, umbrella (small-flower umbrella sedge, Cyperus difformis); experiment: Test C flooded paddy test: sedge, umbrella; conditions: scale 0 to 100 (0 no effect, 100 complete control)
Procedure, shortened: as §2

[13] = 125 g ai/ha, 0 to 100 scale, 0 is no effect, 100 is complete control
[14] = 500 g ai/ha, visual rating on 0 to 100 scale (0 no effect, 100 complete control), approximately ten days
[15] = 125 g ai/ha, 0 to 100 scale (0 no effect, 100 complete control)
[16] = 500 g ai/ha, 0 to 100 scale, 0 is no effect, 100 is complete control
[17] = Flood (flooded paddy test), 62 g ai/ha, visual rating after 13 to 15 days
[18] = Flood (flooded paddy test), 125 g ai/ha, visual rating after 13 to 15 days
[19] = Flood (flooded paddy test), 250 g ai/ha, visual rating after 13 to 15 days

Cc1nn(-c2cccc(C(F)(F)F)c2)nc1Oc1cccc(C(F)(F)F)c1 [Compound 70]
Barnyardgrass plant response rating [1, 13]: 0 | Barnyardgrass plant response rating [1, 14]: 10 | Plant response rating, Barnyardgrass [1, 15]: 0 | Plant response rating, Barnyardgrass [1, 16]: 0 | Foxtail, Giant plant response rating [2, 13]: 10 | Foxtail, Giant plant response rating [2, 14]: 20 | Plant response rating, Foxtail, Giant [2, 15]: 0 | Plant response rating, Foxtail, Giant [2, 16]: 50 | Plant response rating, Rice [3, 17]: 0 | Plant response rating, Rice [3, 18]: 0 | Plant response rating, Rice [3, 19]: 0 | Plant response rating, Rice ([3]; Flood, 31 g ai/ha): 0 | Corn plant response rating [4, 13]: 10 | Corn plant response rating [4, 14]: 20 | Plant response rating, Corn [4, 15]: 0 | Plant response rating, Corn [4, 16]: 0 | Plant response rating, Barnyardgrass [5, 17]: 0 | Plant response rating, Barnyardgrass [5, 18]: 0 | Plant response rating, Barnyardgrass [5, 19]: 0 | Plant response rating, Barnyardgrass ([5]; Flood, 31 g ai/ha): 0 | Plant response rating, Ducksalad [6, 17]: 0 | Plant response rating, Ducksalad [6, 18]: 0 | Plant response rating, Ducksalad [6, 19]: 0 | Plant response rating, Ducksalad ([6]; Flood, 31 g ai/ha): 0 | Wheat plant response rating [7, 13]: 0 | Wheat plant response rating [7, 14]: 10 | Plant response rating, Wheat [7, 15]: 0 | Plant response rating, Wheat [7, 16]: 0 | Crabgrass, Large plant response rating [8, 13]: 10 | Crabgrass, Large plant response rating [8, 14]: 30 | Plant response rating, Crabgrass, Large [8, 15]: 0 | Plant response rating, Crabgrass, Large [8, 16]: 40 | Pigweed plant response rating [9, 13]: 40 | Pigweed plant response rating [9, 14]: 100 | Plant response rating, Pigweed [9, 15]: 0 | Plant response rating, Pigweed [9, 16]: 10 | Morningglory plant response rating [10, 13]: 10 | Morningglory plant response rating [10, 14]: 20 | Plant response rating, Morningglory [10, 15]: 0 | Plant response rating, Morningglory [10, 16]: 0 | Velvetleaf plant response rating [11, 13]: 10 | Velvetleaf plant response rating [11, 14]: 50 | Plant response rating, Velvetleaf [11, 15]: 0 | Plant response rating, Velvetleaf [11, 16]: 0 | Plant response rating, Sedge, Umbrella [12, 17]: 0 | Plant response rating, Sedge, Umbrella [12, 18]: 0 | Plant response rating, Sedge, Umbrella [12, 19]: 0 | Plant response rating, Sedge, Umbrella ([12]; Flood, 31 g ai/ha): 0

Cc1nn(-c2cncc(C(F)(F)F)c2)nc1C(=O)c1cccc(C(F)(F)F)c1 [Compound 66]
Barnyardgrass plant response rating [1, 13]: 0 | Barnyardgrass plant response rating [1, 14]: 10 | Plant response rating, Barnyardgrass [1, 15]: 0 | Plant response rating, Barnyardgrass [1, 16]: 0 | Foxtail, Giant plant response rating [2, 13]: 0 | Foxtail, Giant plant response rating [2, 14]: 10 | Plant response rating, Foxtail, Giant [2, 15]: 10 | Plant response rating, Foxtail, Giant [2, 16]: 70 | Plant response rating, Rice [3, 17]: 0 | Plant response rating, Rice [3, 19]: 0 | Corn plant response rating [4, 13]: 0 | Corn plant response rating [4, 14]: 10 | Plant response rating, Corn [4, 15]: 0 | Plant response rating, Corn [4, 16]: 0 | Plant response rating, Barnyardgrass [5, 17]: 0 | Plant response rating, Barnyardgrass [5, 19]: 0 | Plant response rating, Ducksalad [6, 17]: 0 | Plant response rating, Ducksalad [6, 19]: 0 | Wheat plant response rating [7, 13]: 0 | Wheat plant response rating [7, 14]: 10 | Plant response rating, Wheat [7, 15]: 0 | Plant response rating, Wheat [7, 16]: 0 | Crabgrass, Large plant response rating [8, 13]: 10 | Crabgrass, Large plant response rating [8, 14]: 10 | Plant response rating, Crabgrass, Large [8, 15]: 10 | Plant response rating, Crabgrass, Large [8, 16]: 50 | Pigweed plant response rating [9, 13]: 10 | Pigweed plant response rating [9, 14]: 30 | Plant response rating, Pigweed [9, 15]: 0 | Plant response rating, Pigweed [9, 16]: 10 | Morningglory plant response rating [10, 13]: 0 | Morningglory plant response rating [10, 14]: 10 | Plant response rating, Morningglory [10, 15]: 0 | Plant response rating, Morningglory [10, 16]: 0 | Velvetleaf plant response rating [11, 13]: 0 | Velvetleaf plant response rating [11, 14]: 10 | Plant response rating, Velvetleaf [11, 15]: 0 | Plant response rating, Velvetleaf [11, 16]: 0 | Plant response rating, Sedge, Umbrella [12, 17]: 0 | Plant response rating, Sedge, Umbrella [12, 19]: 0

Cc1nn(-c2ccc(I)cc2)nc1C(=O)c1cccc(C(F)(F)F)c1 [Compound 61]
Barnyardgrass plant response rating [1, 13]: 0 | Barnyardgrass plant response rating [1, 14]: 10 | Plant response rating, Barnyardgrass [1, 15]: 0 | Plant response rating, Barnyardgrass [1, 16]: 0 | Foxtail, Giant plant response rating [2, 13]: 0 | Foxtail, Giant plant response rating [2, 14]: 10 | Plant response rating, Foxtail, Giant [2, 15]: 0 | Plant response rating, Foxtail, Giant [2, 16]: 10 | Plant response rating, Rice [3, 17]: 0 | Plant response rating, Rice [3, 18]: 0 | Plant response rating, Rice [3, 19]: 0 | Plant response rating, Rice ([3]; Flood, 31 g ai/ha): 0 | Corn plant response rating [4, 13]: 10 | Corn plant response rating [4, 14]: 10 | Plant response rating, Corn [4, 15]: 0 | Plant response rating, Corn [4, 16]: 0 | Plant response rating, Barnyardgrass [5, 17]: 0 | Plant response rating, Barnyardgrass [5, 18]: 0 | Plant response rating, Barnyardgrass [5, 19]: 0 | Plant response rating, Barnyardgrass ([5]; Flood, 31 g ai/ha): 0 | Plant response rating, Ducksalad [6, 17]: 0 | Plant response rating, Ducksalad [6, 18]: 0 | Plant response rating, Ducksalad [6, 19]: 0 | Plant response rating, Ducksalad ([6]; Flood, 31 g ai/ha): 0 | Wheat plant response rating [7, 13]: 0 | Wheat plant response rating [7, 14]: 0 | Plant response rating, Wheat [7, 15]: 0 | Plant response rating, Wheat [7, 16]: 0 | Crabgrass, Large plant response rating [8, 13]: 0 | Crabgrass, Large plant response rating [8, 14]: 10 | Plant response rating, Crabgrass, Large [8, 15]: 0 | Plant response rating, Crabgrass, Large [8, 16]: 10 | Pigweed plant response rating [9, 13]: 40 | Pigweed plant response rating [9, 14]: 80 | Plant response rating, Pigweed [9, 15]: 0 | Plant response rating, Pigweed [9, 16]: 10 | Morningglory plant response rating [10, 13]: 10 | Morningglory plant response rating [10, 14]: 30 | Plant response rating, Morningglory [10, 15]: 0 | Plant response rating, Morningglory [10, 16]: 0 | Velvetleaf plant response rating [11, 13]: 10 | Velvetleaf plant response rating [11, 14]: 30 | Plant response rating, Velvetleaf [11, 15]: 0 | Plant response rating, Velvetleaf [11, 16]: 0 | Plant response rating, Sedge, Umbrella [12, 17]: 0 | Plant response rating, Sedge, Umbrella [12, 18]: 0 | Plant response rating, Sedge, Umbrella [12, 19]: 0 | Plant response rating, Sedge, Umbrella ([12]; Flood, 31 g ai/ha): 0

Cc1nn(-c2cccc(C(F)(F)F)c2)nc1Oc1cc(C(F)(F)F)ncn1 [Compound 38]
Barnyardgrass plant response rating [1, 13]: 0 | Barnyardgrass plant response rating [1, 14]: 0 | Plant response rating, Barnyardgrass [1, 15]: 0 | Plant response rating, Barnyardgrass [1, 16]: 0 | Foxtail, Giant plant response rating [2, 13]: 0 | Foxtail, Giant plant response rating [2, 14]: 0 | Plant response rating, Foxtail, Giant [2, 15]: 0 | Plant response rating, Foxtail, Giant [2, 16]: 20 | Plant response rating, Rice [3, 17]: 0 | Plant response rating, Rice [3, 19]: 0 | Corn plant response rating [4, 13]: 0 | Corn plant response rating [4, 14]: 0 | Plant response rating, Corn [4, 15]: 0 | Plant response rating, Corn [4, 16]: 0 | Plant response rating, Barnyardgrass [5, 17]: 0 | Plant response rating, Barnyardgrass [5, 19]: 0 | Plant response rating, Ducksalad [6, 17]: 0 | Plant response rating, Ducksalad [6, 19]: 0 | Wheat plant response rating [7, 13]: 0 | Wheat plant response rating [7, 14]: 0 | Plant response rating, Wheat [7, 15]: 0 | Plant response rating, Wheat [7, 16]: 0 | Crabgrass, Large plant response rating [8, 13]: 20 | Crabgrass, Large plant response rating [8, 14]: 50 | Plant response rating, Crabgrass, Large [8, 15]: 50 | Plant response rating, Crabgrass, Large [8, 16]: 60 | Pigweed plant response rating [9, 13]: 0 | Pigweed plant response rating [9, 14]: 30 | Plant response rating, Pigweed [9, 15]: 0 | Plant response rating, Pigweed [9, 16]: 10 | Morningglory plant response rating [10, 13]: 0 | Morningglory plant response rating [10, 14]: 0 | Plant response rating, Morningglory [10, 15]: 0 | Plant response rating, Morningglory [10, 16]: 0 | Velvetleaf plant response rating [11, 13]: 0 | Velvetleaf plant response rating [11, 14]: 60 | Plant response rating, Velvetleaf [11, 15]: 0 | Plant response rating, Velvetleaf [11, 16]: 0 | Plant response rating, Sedge, Umbrella [12, 17]: 0 | Plant response rating, Sedge, Umbrella [12, 19]: 0
